Data set [1] is described as follows: Powder flowability after exposure to ambient conditions. Format: physicochemical. An excerpt: The particles made by Example 2 were further determined to be advantageous over pure non-crystalline forms. […] Accordingly, the non-crystalline losartan and PVP-VA containing powder formulation has an improved flowability for downstream process such as tablet formation.

A short description of data set [2]: Differential Scanning Calorimetry (DSC): amorphous form and glass transition temperature. It counts as physicochemical. The note with it: specific heat as a function of temperature. On the procedure:
DSC was used to determine glass transition temperatures. This technique provides a measure of the glass transition characteristics of amorphous materials. In addition, the absence of a melting point is indicative of the lack of three dimensional order characteristic of crystalline materials. A Perkin-Elmer™ DSC 7 (Perkin-Elmer Ltd, UK) was used. 1-5 mg samples were examined in sealed, crimped aluminium pans, under an atmosphere of nitrogen. Samples were measured using a TA DSC-2920 instrument (TA Instruments, New Castle, Del.). About 5-10 mg sample was packed into an aluminum DSC pan and gently tapped to get the powder to form a uniform layer on the bottom of the pan (Catalog numbers 900 793.901 for pans and 900 794.901 for lids). The DSC pan was hermetically sealed using a sample encapsulation press (part # 900680.902). Helium is used as the DSC purge gas at 30 ml/min. A Refrigerated Control System (RCS) provides the heat sink for the DSC, with helium as the circuit gas run at ˜110 ml/min. In modulated DSC experiments, the sample was first cooled to about 0° C., held isothermally for 10 minutes, and then heated at 2° C./minute to ˜200° C. The heating rate was modulated by superimposing a sinusoidal heating profile at ±0.318° C./min.
On the technique in general: Differential scanning calorimetry records heat flow against a reference as temperature is scanned.

Structures are written as SMILES.

In the case of `CCCCc1nc(Cl)c(CO)n1Cc1ccc(-c2ccccc2-c2nnn[nH]2)cc1.[K]` [pure non-crystalline losartan, 2-butyl-4-chloro-1-[p-(o-1H-tetrazol-5-ylphenyl)benzyl]imidazole-5-methanol monopotassium salt], the powder flowability result in data set [1] was “sticks and agglomerates”. In addition, in data set [2], the Tg midpoint entry was “about 51 °C” and the Tg onset entry is “about 46 °C”.

The values are drawn from patent publication US20060160871A1, “Stable non-crystalline formulation comprising losartan” (Nektar Therapeutics, priority 2004, published 2006).
